Reference: patent US20080009418A1, “Selective Inhibitors” (Alchemia LTD., priority 2004, published 2008)

Columns and labels:
Settings in all cases: compound at 10 μM
Human δ-opioid (DOP) = biological target: T1, Human δ-opioid (DOP) (Homo sapiens, UniProt P41143); assay: Radioligand binding, human δ-opioid (DOP) membranes, FlashPlate, [3H]-Bremazocine
T1 construct: purchased Perkin Elmer Biosignal
Summary of the method: (§1)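 Cloned human receptor membranes were coated onto FlashPlate wells and incubated with radioligand and compound (added from a 0.5 mM DMSO daughter plate) for 1 hour at room temperature in the dark. Scintillation counting gave percent inhibition, with DMSO defining total and reference ligand defining non-specific binding.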

Human κ-Opioid (KOP) = biological target: T2, Human κ-Opioid (KOP) (Homo sapiens, UniProt P41145); assay: Radioligand binding, human κ-opioid (KOP) membranes, filtration, [3H]-Diprenorphine
T2 construct: purchased Perkin Elmer Biosignal
T2 sequence (P41145 whole entry): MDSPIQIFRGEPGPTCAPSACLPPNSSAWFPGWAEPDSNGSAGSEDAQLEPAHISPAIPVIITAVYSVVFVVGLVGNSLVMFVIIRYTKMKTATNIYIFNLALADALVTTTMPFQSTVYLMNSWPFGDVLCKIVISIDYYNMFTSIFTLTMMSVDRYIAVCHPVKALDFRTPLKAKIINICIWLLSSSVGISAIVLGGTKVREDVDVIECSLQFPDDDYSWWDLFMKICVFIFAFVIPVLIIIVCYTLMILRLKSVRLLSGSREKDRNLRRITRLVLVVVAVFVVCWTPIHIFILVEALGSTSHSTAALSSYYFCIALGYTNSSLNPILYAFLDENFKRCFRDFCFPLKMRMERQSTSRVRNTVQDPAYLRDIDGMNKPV
Summary of the method: (§2)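 Filtration binding on cloned human receptor membranes (1 Unit/well), [125I]-Substance P for NK1 and [3H]-Diprenorphine for KOP, 1 h at room temperature. Filters PEI-presoaked, washed with cold 50 mM Tris-HCl pH 7.4, counted by scintillation; percent inhibition calculated, reference ligand defining non-specific binding.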

Human Melanocortin (MC3) = biological target: T3, Human Melanocortin (MC3) (Homo sapiens, UniProt P41968); assay: Radioligand binding, human melanocortin MC3 membranes, FlashPlate, [125I]-NDP-αMSH
T3 construct: purchased Perkin Elmer Biosignal
T3 sequence (P41968 whole entry): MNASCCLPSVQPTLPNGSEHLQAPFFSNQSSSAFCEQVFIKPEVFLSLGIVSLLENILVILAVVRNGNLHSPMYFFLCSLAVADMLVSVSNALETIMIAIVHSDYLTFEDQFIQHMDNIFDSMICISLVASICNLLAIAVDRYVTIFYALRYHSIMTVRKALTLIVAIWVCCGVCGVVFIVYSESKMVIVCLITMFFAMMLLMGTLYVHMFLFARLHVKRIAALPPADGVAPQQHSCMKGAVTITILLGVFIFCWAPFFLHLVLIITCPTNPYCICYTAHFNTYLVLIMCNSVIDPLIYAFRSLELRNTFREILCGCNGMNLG
Summary of the method: as §1

Human Melanocortin (MC4) = biological target: T4, Human Melanocortin (MC4) (Homo sapiens, UniProt P32245); assay: Radioligand binding, human melanocortin MC4 membranes, FlashPlate, [125I]-NDP-αMSH
T4 construct: purchased Perkin Elmer Biosignal
T4 sequence (P32245 whole entry): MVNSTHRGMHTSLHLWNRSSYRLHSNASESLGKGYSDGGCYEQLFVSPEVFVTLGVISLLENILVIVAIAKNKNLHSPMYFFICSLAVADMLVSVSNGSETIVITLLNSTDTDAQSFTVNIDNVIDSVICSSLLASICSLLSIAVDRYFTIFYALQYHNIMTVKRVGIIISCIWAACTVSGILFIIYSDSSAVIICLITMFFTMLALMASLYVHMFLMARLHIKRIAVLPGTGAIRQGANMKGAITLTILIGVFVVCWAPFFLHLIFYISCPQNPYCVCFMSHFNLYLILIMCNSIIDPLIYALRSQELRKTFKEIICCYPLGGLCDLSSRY
Summary of the method: as §1

Human melanocortin (MC5) = biological target: T5, Human melanocortin (MC5) (Homo sapiens, UniProt P33032); assay: Radioligand binding, human melanocortin MC5 membranes, FlashPlate, [125I]-NDP-αMSH
T5 construct: purchased Perkin Elmer Biosignal
T5 sequence (P33032 whole entry): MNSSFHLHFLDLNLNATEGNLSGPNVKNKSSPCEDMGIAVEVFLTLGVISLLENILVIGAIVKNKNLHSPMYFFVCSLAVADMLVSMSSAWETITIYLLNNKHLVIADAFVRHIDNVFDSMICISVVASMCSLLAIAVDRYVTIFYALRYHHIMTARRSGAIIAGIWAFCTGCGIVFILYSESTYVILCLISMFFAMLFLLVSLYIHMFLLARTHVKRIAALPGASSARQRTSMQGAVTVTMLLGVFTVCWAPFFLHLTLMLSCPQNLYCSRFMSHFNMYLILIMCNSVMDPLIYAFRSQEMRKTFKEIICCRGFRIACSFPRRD
Summary of the method: as §1

[1] = biological target: T6, Human melanin-concentrating hormone (MCH1) (Homo sapiens, UniProt Q99705); assay: Radioligand binding, human melanin-concentrating hormone MCH1 membranes, FlashPlate, [125I]-S36057
T6 construct: purchased Perkin Elmer Biosignal
T6 sequence (Q99705 whole entry): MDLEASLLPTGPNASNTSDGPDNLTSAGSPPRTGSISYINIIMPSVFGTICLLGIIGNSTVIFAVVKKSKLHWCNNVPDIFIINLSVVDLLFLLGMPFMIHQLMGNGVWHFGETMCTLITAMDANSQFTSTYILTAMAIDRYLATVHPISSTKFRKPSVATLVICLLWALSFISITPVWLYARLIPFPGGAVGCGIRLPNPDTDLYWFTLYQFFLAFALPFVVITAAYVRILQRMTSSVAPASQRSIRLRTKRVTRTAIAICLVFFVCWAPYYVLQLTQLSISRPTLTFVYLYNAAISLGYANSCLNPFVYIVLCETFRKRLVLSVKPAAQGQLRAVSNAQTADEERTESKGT
Summary of the method: as §1

Human μ-opioid (MOP) = biological target: T7, Human μ-opioid (MOP) (Homo sapiens, UniProt P35372); assay: Radioligand binding, human μ-opioid (MOP) membranes, FlashPlate, [3H]-Naloxone
T7 construct: purchased Perkin Elmer Biosignal
T7 sequence (P35372 whole entry): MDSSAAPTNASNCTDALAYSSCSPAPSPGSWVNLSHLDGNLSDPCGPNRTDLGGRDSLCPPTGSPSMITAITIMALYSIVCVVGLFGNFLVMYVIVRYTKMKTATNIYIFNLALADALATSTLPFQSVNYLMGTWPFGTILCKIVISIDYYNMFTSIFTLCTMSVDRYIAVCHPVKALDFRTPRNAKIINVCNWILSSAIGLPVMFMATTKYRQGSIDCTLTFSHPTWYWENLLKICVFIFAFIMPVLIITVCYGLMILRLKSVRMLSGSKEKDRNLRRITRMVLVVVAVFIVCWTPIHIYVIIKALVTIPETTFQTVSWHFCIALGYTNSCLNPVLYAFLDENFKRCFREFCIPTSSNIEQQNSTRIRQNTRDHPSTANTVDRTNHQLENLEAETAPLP
Summary of the method: as §1

Human neurokinin (NK1) = biological target: T8, Human neurokinin (NK1) (Homo sapiens, UniProt P25103); assay: Radioligand binding, human neurokinin NK1 membranes, filtration, [125I]-Substance P
T8 construct: purchased Perkin Elmer Biosignal
T8 sequence (P25103 whole entry): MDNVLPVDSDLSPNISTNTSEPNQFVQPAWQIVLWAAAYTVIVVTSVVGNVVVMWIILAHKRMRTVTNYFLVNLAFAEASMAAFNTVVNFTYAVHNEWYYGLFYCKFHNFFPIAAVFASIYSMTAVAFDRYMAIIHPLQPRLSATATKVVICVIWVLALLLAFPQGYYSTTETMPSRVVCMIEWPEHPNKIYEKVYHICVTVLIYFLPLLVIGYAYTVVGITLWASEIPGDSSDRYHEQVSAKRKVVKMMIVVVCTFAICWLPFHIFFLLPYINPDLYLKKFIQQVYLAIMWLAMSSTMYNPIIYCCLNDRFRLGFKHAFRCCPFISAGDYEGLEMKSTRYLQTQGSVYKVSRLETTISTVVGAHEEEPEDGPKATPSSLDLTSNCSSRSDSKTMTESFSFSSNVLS
Summary of the method: as §2

[2] = biological target: T9, Human neuropeptide Y (NPY-Y1) (Homo sapiens, UniProt P25929); assay: Radioligand binding, human neuropeptide Y NPY-Y1 membranes, FlashPlate, [125I]-PYY
T9 construct: purchased Perkin Elmer Biosignal
T9 sequence (P25929 1-384): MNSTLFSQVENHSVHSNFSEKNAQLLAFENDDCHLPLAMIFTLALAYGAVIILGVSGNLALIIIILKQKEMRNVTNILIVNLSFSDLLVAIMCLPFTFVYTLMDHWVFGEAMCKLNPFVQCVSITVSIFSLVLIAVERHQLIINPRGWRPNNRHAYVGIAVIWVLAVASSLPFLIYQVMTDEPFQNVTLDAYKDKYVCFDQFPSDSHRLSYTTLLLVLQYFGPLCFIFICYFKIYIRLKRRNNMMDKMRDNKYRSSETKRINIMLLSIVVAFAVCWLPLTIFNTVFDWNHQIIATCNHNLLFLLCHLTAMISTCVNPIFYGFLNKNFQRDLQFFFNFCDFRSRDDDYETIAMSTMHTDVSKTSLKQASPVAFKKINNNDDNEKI
Summary of the method: as §1

Human opioid (ORL1) = biological target: T10, Human opioid (ORL1) (Homo sapiens, UniProt P41146); assay: Radioligand binding, human opioid ORL1 membranes, FlashPlate, [125I]-Nociceptin
T10 construct: purchased Perkin Elmer Biosignal
T10 sequence (P41146 whole entry): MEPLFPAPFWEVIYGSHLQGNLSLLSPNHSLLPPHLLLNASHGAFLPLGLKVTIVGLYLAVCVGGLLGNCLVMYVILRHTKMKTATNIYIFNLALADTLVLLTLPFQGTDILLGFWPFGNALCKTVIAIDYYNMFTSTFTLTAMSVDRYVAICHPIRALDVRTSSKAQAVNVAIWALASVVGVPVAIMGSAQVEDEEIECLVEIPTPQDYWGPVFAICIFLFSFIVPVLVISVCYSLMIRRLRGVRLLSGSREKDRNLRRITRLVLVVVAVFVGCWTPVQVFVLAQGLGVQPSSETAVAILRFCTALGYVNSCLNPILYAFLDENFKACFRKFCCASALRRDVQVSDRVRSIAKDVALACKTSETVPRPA
Summary of the method: as §1

Mouse urotensin (mUR2) = biological target: T11, Mouse urotensin (mUR2) (Mus musculus, UniProt Q8VIH9); assay: Radioligand binding, mouse urotensin mUR2 membranes, FlashPlate, [125I]-Urotensin II
T11 construct: purchased Perkin Elmer Biosignal
T11 sequence (Q8VIH9 1-385): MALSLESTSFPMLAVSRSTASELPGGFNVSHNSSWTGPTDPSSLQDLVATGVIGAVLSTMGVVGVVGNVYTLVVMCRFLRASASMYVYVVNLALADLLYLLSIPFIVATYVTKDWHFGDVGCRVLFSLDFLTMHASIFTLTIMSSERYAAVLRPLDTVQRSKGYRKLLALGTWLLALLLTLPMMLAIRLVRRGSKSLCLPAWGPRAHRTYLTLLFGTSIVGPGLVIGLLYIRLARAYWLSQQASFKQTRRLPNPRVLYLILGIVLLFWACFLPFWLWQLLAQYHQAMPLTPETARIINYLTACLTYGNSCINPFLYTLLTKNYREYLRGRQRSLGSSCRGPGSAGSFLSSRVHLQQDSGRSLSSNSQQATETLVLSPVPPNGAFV
Summary of the method: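 Cloned mouse urotensin (mUR2) receptor membranes from Perkin Elmer Biosignal were immobilized in FlashPlate microplates using a proprietary coating. Each well got 19.5 μl buffer, then 0.5 μl of DMSO, reference ligand, or compound. Adding 5 μl of [125I]-Urotensin II, diluted to 5× final concentration in binding buffer, started binding. Plates were sealed with TopSeal-A and incubated 1 hour at room temperature in the dark. Wells were counted for 30 seconds each on a TopCount after a 60-second delay, and percentage inhibition was calculated.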

T1 sequence (P41143 whole entry): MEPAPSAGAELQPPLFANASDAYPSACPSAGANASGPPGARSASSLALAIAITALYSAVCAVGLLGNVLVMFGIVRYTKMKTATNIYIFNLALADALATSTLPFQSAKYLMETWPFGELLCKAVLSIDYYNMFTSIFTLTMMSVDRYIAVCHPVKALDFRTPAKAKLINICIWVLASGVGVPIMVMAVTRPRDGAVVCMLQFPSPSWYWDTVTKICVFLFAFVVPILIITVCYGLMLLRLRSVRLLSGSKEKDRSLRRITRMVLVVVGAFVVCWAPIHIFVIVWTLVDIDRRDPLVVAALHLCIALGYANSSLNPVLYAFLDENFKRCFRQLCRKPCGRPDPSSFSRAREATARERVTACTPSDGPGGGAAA

## COC[C@H]1OC(OCc2ccc(Cl)cc2)[C@H](NC(=O)CCCN)[C@@H](OCc2ccc(-c3ccccc3)cc2)[C@@H]1O (stereo partly shown) [compound 342]
Human δ-opioid (DOP); [3H]-Bremazocine
  A1: inhibition of radioligand binding, human δ-opioid (DOP): − (“−” indicates less than 50% inhibition at 10 μM)
Human κ-Opioid (KOP); [3H]-Diprenorphine
  A2: inhibition of radioligand binding, human κ-opioid (KOP): − (“−” indicates less than 50% inhibition at 10 μM)
Human Melanocortin (MC3); [125I]-NDP-αMSH
  A3: inhibition of radioligand binding, human melanocortin (MC3): − (“−” indicates less than 50% inhibition at 10 μM)
Human Melanocortin (MC4); [125I]-NDP-αMSH
  A4: inhibition of radioligand binding, human melanocortin (MC4): + (“+” indicates greater than 50% inhibition at 10 μM)
Human melanocortin (MC5); [125I]-NDP-αMSH
  A5: inhibition of radioligand binding, human melanocortin (MC5): − (“−” indicates less than 50% inhibition at 10 μM)
[1]; [125I]-S36057
  A6: inhibition of radioligand binding, human melanin-concentrating hormone (MCH1): − (“−” indicates less than 50% inhibition at 10 μM)
Human μ-opioid (MOP); [3H]-Naloxone
  A7: inhibition of radioligand binding, human μ-opioid (MOP): + (“+” indicates greater than 50% inhibition at 10 μM)
Human neurokinin (NK1); [125I]-Substance P
  A8: inhibition of radioligand binding, human neurokinin (NK1): + (“+” indicates greater than 50% inhibition at 10 μM)
[2]; [125I]-PYY
  A9: inhibition of radioligand binding, human neuropeptide Y (NPY-Y1): − (“−” indicates less than 50% inhibition at 10 μM)
Human opioid (ORL1); [125I]-Nociceptin
  A10: inhibition of radioligand binding, human opioid (ORL1): − (“−” indicates less than 50% inhibition at 10 μM)
Mouse urotensin (mUR2); [125I]-Urotensin II
  A11: inhibition of radioligand binding, mouse urotensin (mUR2): − (“−” indicates less than 50% inhibition at 10 μM)

## CSC1OC(COCc2ccccc2)C(O)C(OCc2ccc3ccccc3c2)C1NC(=O)CNC(=N)N (stereo not shown) [compound 302]
Human δ-opioid (DOP); [3H]-Bremazocine
  A1: inhibition of radioligand binding, human δ-opioid (DOP): − (“−” indicates less than 50% inhibition at 10 μM)
Human κ-Opioid (KOP); [3H]-Diprenorphine
  A2: inhibition of radioligand binding, human κ-opioid (KOP): − (“−” indicates less than 50% inhibition at 10 μM)
Human Melanocortin (MC3); [125I]-NDP-αMSH
  A3: inhibition of radioligand binding, human melanocortin (MC3): − (“−” indicates less than 50% inhibition at 10 μM)
Human Melanocortin (MC4); [125I]-NDP-αMSH
  A4: inhibition of radioligand binding, human melanocortin (MC4): + (“+” indicates greater than 50% inhibition at 10 μM)
Human melanocortin (MC5); [125I]-NDP-αMSH
  A5: inhibition of radioligand binding, human melanocortin (MC5): + (“+” indicates greater than 50% inhibition at 10 μM)
[1]; [125I]-S36057
  A6: inhibition of radioligand binding, human melanin-concentrating hormone (MCH1): − (“−” indicates less than 50% inhibition at 10 μM)
Human μ-opioid (MOP); [3H]-Naloxone
  A7: inhibition of radioligand binding, human μ-opioid (MOP): − (“−” indicates less than 50% inhibition at 10 μM)
Human neurokinin (NK1); [125I]-Substance P
  A8: inhibition of radioligand binding, human neurokinin (NK1): + (“+” indicates greater than 50% inhibition at 10 μM)
[2]; [125I]-PYY
  A9: inhibition of radioligand binding, human neuropeptide Y (NPY-Y1): − (“−” indicates less than 50% inhibition at 10 μM)
Human opioid (ORL1); [125I]-Nociceptin
  A10: inhibition of radioligand binding, human opioid (ORL1): − (“−” indicates less than 50% inhibition at 10 μM)
Mouse urotensin (mUR2); [125I]-Urotensin II
  A11: inhibition of radioligand binding, mouse urotensin (mUR2): − (“−” indicates less than 50% inhibition at 10 μM)

## CSC1OC(COCc2cccc(N)c2)C(O)C(OCc2ccc(Cl)cc2)C1NC(=O)Cc1ccccc1 (stereo not shown) [compound 333]
Human δ-opioid (DOP); [3H]-Bremazocine
  A1: inhibition of radioligand binding, human δ-opioid (DOP): − (“−” indicates less than 50% inhibition at 10 μM)
Human κ-Opioid (KOP); [3H]-Diprenorphine
  A2: inhibition of radioligand binding, human κ-opioid (KOP): − (“−” indicates less than 50% inhibition at 10 μM)
Human Melanocortin (MC3); [125I]-NDP-αMSH
  A3: inhibition of radioligand binding, human melanocortin (MC3): − (“−” indicates less than 50% inhibition at 10 μM)
Human Melanocortin (MC4); [125I]-NDP-αMSH
  A4: inhibition of radioligand binding, human melanocortin (MC4): − (“−” indicates less than 50% inhibition at 10 μM)
Human melanocortin (MC5); [125I]-NDP-αMSH
  A5: inhibition of radioligand binding, human melanocortin (MC5): − (“−” indicates less than 50% inhibition at 10 μM)
[1]; [125I]-S36057
  A6: inhibition of radioligand binding, human melanin-concentrating hormone (MCH1): − (“−” indicates less than 50% inhibition at 10 μM)
Human μ-opioid (MOP); [3H]-Naloxone
  A7: inhibition of radioligand binding, human μ-opioid (MOP): − (“−” indicates less than 50% inhibition at 10 μM)
Human neurokinin (NK1); [125I]-Substance P
  A8: inhibition of radioligand binding, human neurokinin (NK1): + (“+” indicates greater than 50% inhibition at 10 μM)
[2]; [125I]-PYY
  A9: inhibition of radioligand binding, human neuropeptide Y (NPY-Y1): − (“−” indicates less than 50% inhibition at 10 μM)
Human opioid (ORL1); [125I]-Nociceptin
  A10: inhibition of radioligand binding, human opioid (ORL1): − (“−” indicates less than 50% inhibition at 10 μM)
Mouse urotensin (mUR2); [125I]-Urotensin II
  A11: inhibition of radioligand binding, mouse urotensin (mUR2): − (“−” indicates less than 50% inhibition at 10 μM)

## COCC1OC(OCc2ccccc2)C(NC(=O)CCN)C(OCc2ccc(-c3ccccc3)cc2)C1O (stereo not shown) [compound 184]
Human δ-opioid (DOP); [3H]-Bremazocine
  A1 radioligand binding, percentage inhibition: − (“−” indicates less than 50% inhibition at 10 μM)
Human κ-Opioid (KOP); [3H]-Diprenorphine
  A2 radioligand binding, percentage inhibition: − (“−” indicates less than 50% inhibition at 10 μM)
Human Melanocortin (MC3); [125I]-NDP-αMSH
  A3 radioligand binding, percentage inhibition: − (“−” indicates less than 50% inhibition at 10 μM)
Human Melanocortin (MC4); [125I]-NDP-αMSH
  A4 radioligand binding, percentage inhibition: − (“−” indicates less than 50% inhibition at 10 μM)
Human melanocortin (MC5); [125I]-NDP-αMSH
  A5 radioligand binding, percentage inhibition: + (“+” indicates greater than 50% inhibition at 10 μM)
[1]; [125I]-S36057
  A6 radioligand binding, percentage inhibition: − (“−” indicates less than 50% inhibition at 10 μM)
Human μ-opioid (MOP); [3H]-Naloxone
  A7 radioligand binding, percentage inhibition: − (“−” indicates less than 50% inhibition at 10 μM)
Human neurokinin (NK1); [125I]-Substance P
  A8 radioligand binding, percentage inhibition: + (“+” indicates greater than 50% inhibition at 10 μM)
[2]; [125I]-PYY
  A9 radioligand binding, percentage inhibition: − (“−” indicates less than 50% inhibition at 10 μM)
Human opioid (ORL1); [125I]-Nociceptin
  A10 radioligand binding, percentage inhibition: − (“−” indicates less than 50% inhibition at 10 μM)
Mouse urotensin (mUR2); [125I]-Urotensin II
  A11 radioligand binding, percentage inhibition: − (“−” indicates less than 50% inhibition at 10 μM)

## CO[C@H]1[C@H](O)[C@@H](COCc2ccccc2)OC(OCc2ccc3ccccc3c2)[C@@H]1NC(=O)CCCNC(=N)N (stereo partly shown) [compound 77]
Human δ-opioid (DOP); human δ-opioid (DOP) membranes
  A1 radioligand binding inhibition: − (“−” indicates less than 50% inhibition at 10 μM)
Human κ-Opioid (KOP); human κ-opioid (KOP) membranes
  A2 radioligand binding inhibition: − (“−” indicates less than 50% inhibition at 10 μM)
Human Melanocortin (MC3); human melanocortin MC3 membranes
  A3 radioligand binding inhibition: − (“−” indicates less than 50% inhibition at 10 μM)
Human Melanocortin (MC4); human melanocortin MC4 membranes
  A4 radioligand binding inhibition: − (“−” indicates less than 50% inhibition at 10 μM)
Human melanocortin (MC5); human melanocortin MC5 membranes
  A5 radioligand binding inhibition: + (“+” indicates greater than 50% inhibition at 10 μM)
[1]; human MCH1 membranes
  A6 radioligand binding inhibition: − (“−” indicates less than 50% inhibition at 10 μM)
Human μ-opioid (MOP); human μ-opioid (MOP) membranes
  A7 radioligand binding inhibition: + (“+” indicates greater than 50% inhibition at 10 μM)
Human neurokinin (NK1); human neurokinin NK1 membranes
  A8 radioligand binding inhibition: + (“+” indicates greater than 50% inhibition at 10 μM)
[2]; human NPY-Y1 membranes
  A9 radioligand binding inhibition: − (“−” indicates less than 50% inhibition at 10 μM)
Human opioid (ORL1); human ORL1 membranes
  A10 radioligand binding inhibition: − (“−” indicates less than 50% inhibition at 10 μM)
Mouse urotensin (mUR2); mouse urotensin mUR2 membranes
  A11 radioligand binding inhibition: − (“−” indicates less than 50% inhibition at 10 μM)
